Key:
[1] = system: APP/PS1 mouse; test: Morris Water Maze test in APP/PS1 mouse; format: in vivo; details: compared to SCNPA101 or FTY720
Description: (§1) In order to confirm a potential effect on learning and memory, a Morris Water Maze (MWM) test was performed. In the MWM, the mouse learned a task 4 times a day for 10 days, a platform was removed on day 11, and aprobe trial was performed. To evaluate activity and anxiety, an open field test and a dark and light test were performed. In the open field test, the mouse was placed in a quadrangular box for 10 minutes and then overall activity and a time spent to move around a wall side and a center were measured. In the dark and light test, the mouse was placed in a quadrangular box consisting of a dark box and a light box for 10 minutes, and a time staying in each box, the number of reciprocating the boxes, and a time to first enter into a light box were measured.

[2] = system: amyloid-β deposition; test: Amyloid-β deposition in medulla and hippocampus of APP/PS1 mouse (ThioS, Aβ40, Aβ42 staining); format: in vivo; details: 100 mg/kg/day
Description: In order to confirm whether the inhibition of ASM activity by administration of the ASM inhibitory compounds has an effect on Alzheimer's lesions, first, the medulla and hippocampus regions of the mouse were stained with Thioflavin S (ThioS) according to a known method to confirm protofibril amyloid-β deposition. In addition, immunofluorescence staining of Aβ40 and Aβ42 was performed to confirm the amyloid-β deposition.

[3] = Stability in human liver microsomes; format: in vitro ADME
[4] = Pharmacokinetic test in blood after oral or intravenous administration in normal mice; details: mouse, 10 mg/kg
[5] = Stability in mouse liver microsomes; format: in vitro ADME
[6] = system: TNF-a, IL-1b, IL-6; test: mRNA expression of inflammatory cytokines in brain of APP/PS1 mouse (real-time quantitative PCR); format: in vivo; details: SCNPA 100 mg/kg/day, FTY720 1 mg/kg/day
Description: A real-time quantitative PCR method was used to measure the expression levels of inflammatory response-related cytokines (TNF-α, IL-1b, and IL-6). Total RNA was extracted from the brain tissue using an RNeasy Plus mini kit (Qiagen, Korea, Ltd), and cDNA was synthesized from 5 μg of total RNA using a kit from Clontech Co., Ltd. (Mountain View, CA). In addition, by using a Corbett research RG-6000 real-time PCR instrument, real-time quantitative PCR was performed by setting 95° C., 10 min; 95° C., 10 sec; 58° C., 15 sec; 72° C., 20 sec as one cycle and repeating 40 cycles.

[7] = Brain distribution after oral administration in normal mice; format: in vivo, mouse; details: oral 10 mg/kg
[8] = in vivo; details: mouse, po, 10 mg/kg
[9] = system: APP/PS1 mouse; test: Open field test and dark & light test in APP/PS1 mouse; format: in vivo; details: SCNPA 100 mg/kg/day, FTY720 1 mg/kg/day
Description: as §1

[10] = system: astrocytes (GFAP); test: Astrocytes (GFAP) in brain of APP/PS1 mouse; details: SCNPA 100 mg/kg/day, FTY720 1 mg/kg/day
[11] = system: S1P; test: S1P level in fibroblasts; details: normal or Alzheimer's patient fibroblasts, 10 μM
Description: (§2) Human fibroblast lines (normal and PS1) were obtained from Coriell Institute and cultured in a DMEM containing 15% FBS at 37° C. and 5% CO2 and used.
(§3) To measure a concentration level of Sphk, 3 μl of the fibroblast sample was mixed with a Sphk activity buffer and stored at 37° C. Subsequently, 54 μl of ethanol was added and the mixture was centrifuged after terminating a hydrolysis reaction. After 30 μl of a supernatant was transferred to a glass vial, 5 μl of the supernatant was applied to a UPLC system. Each Sphk concentration level was quantified using a UPLC system by comparing the Sphk concentration level with NBD bound to sphingosine and S1P. For extraction and quantification of Ceramide and S1P, lipids were extracted from the samples by a known method, and the dried lipid extract was resuspended in 25 μl of 0.2% Igepal CA-630 (Sigma-Aldrich), and the concentration levels of Ceramide and S1P were quantified using the UPLC system.

[12] = system: Sphk; test: Sphk activity in fibroblasts; details: normal or Alzheimer's patient fibroblasts, 10 μM
Description: as §2, §3

[13] = system: S1P receptor 1 (S1PR1); test: S1PR1 expression in fibroblasts (Western blot); details: normal or Alzheimer's patient fibroblasts, 10 μM
Description: Human fibroblast lines (normal and PS1) were obtained from Coriell Institute and cultured in a DMEM containing 15% FBS at 37° C. and 5% CO2 and used. Thereafter, the cell lines were treated with 10 μM of each of the synthesized ASM inhibitory compounds and FTY720 (Cayman), and then changes in ASM activity, Ceramide, S1P, and S1PR1 were measured.
Protein expression of S1PR1 was analyzed using Western blotting. First, antibodies against S1PR1 (abcam) and β-actin (Santa Cruz) were used, and densitometric quantification was performed using ImageJ software (US National Institutes of Health).

## CCCCCCCCCn1cc(C(N)(CO)CO)nn1 [SCNPA201, 2-amino-2-(1-nonanyl-1H-1,2,3-triazol-4-yl)propane-1,3-diol]
[1]
  effect of improving cognition: more remarkable
[2]
  Aβ40 deposition: lowest
  Aβ42 deposition: lowest
  protofibril Aβ deposition (Thioflavin S): lowest
[3]
  metabolic stability (in words): high metabolic stability
[4]
  bioavailability: 50.3%
[5]
  remaining amount after 30 minutes: 95.66%
[6]
  gene expression of inflammatory cytokines TNF-a, IL-1b, and IL-6: restored to a normal level
[7]
  brain distribution values: 3.64

## CCCCCCCCCCCCn1cc(C(N)(CO)CO)nn1 [SCNPA101, 2-amino-2-(1-dodecyl-1H-1,2,3-triazol-4-yl)propane-1,3-diol, reference compound]
[8]
  bioavailability: 19.6%
[3]
  remaining amount after 30 minutes: 7.8%
[9]
  activity and anxiety: improved
[5]
  remaining amount after 30 minutes: 86.36%
[6]
  gene expression of inflammatory cytokines TNF-a, IL-1b, and IL-6: restored to a normal level
[7]; mouse, brain
  Kp: 3.61
[10]
  activity of astrocytes: significantly decreased

## CCCCCCn1cc(C(N)(CO)CO)nn1 [SCNPA501, 2-amino-2-(1-hexyl-1H-1,2,3-triazol-4-yl)propane-1,3-diol]
[3]
  metabolic stability (in words): high metabolic stability
[4]
  bioavailability: 72.3%
[5]
  remaining amount after 30 minutes: 98.21%
[7]
  brain distribution values: 1.41

## CCCCCCCCc1ccc(CCC(N)(CO)CO)cc1 [FTY720]
[11]
  expression of S1P: reduced
[12]
  Sphk activity: reduced
[13]
  expression of S1PR1: reduced

Source: patent publication US12398109B2, “2-amino-2-(1,2,3-triazole-4-yl)propane-1,3-diol derivative of novel compound for directly inhibiting ASM activity, and use thereof” (KYUNGPOOK NATIONAL UNIVERSITY INDUSTRY-ACADEMIC COOPERATION …, priority 2018, dated 2025)
